From US20050192261A1, “Methods and reagents for the treatment of immunoinflammatory disorders” (priority 2003, published 2005)
Structures can show the parent of a compound that is named as a salt. Where two headings read alike, the source gives them in different places.

Test system: TNFα secretion in white blood cells from human buffy coat stimulated with phorbol 12-myristate 13-acetate and ionomycin
Experiment: TNFα secretion assay
Details: for inhibition at 14 µM / inhibition at 28 µM / inhibition at 0.3 µM / inhibition at 19 µM / inhibition at 0.5 µM / inhibition at 1 µM / inhibition at 2 µM / inhibition at 4 µM / inhibition at 8 µM / inhibition at 0.2 µM / inhibition at 13 µM / inhibition at 26 µM: Homo sapiens; for inhibition at 0.3 µM: read-out: % inhibition of TNFα secretion, Dipyridamole 0.3 μM; for inhibition at 19 µM: read-out: % inhibition of TNFα secretion, Dipyridamole 19 μM; for inhibition at 0.5 µM: read-out: % inhibition of TNFα secretion, Ibudilast 0.5 μM; for inhibition at 1 µM: read-out: % inhibition of TNFα secretion, Ibudilast 1 μM; for inhibition at 2 µM: read-out: % inhibition of TNFα secretion, Ibudilast 2 μM; for inhibition at 4 µM: read-out: % inhibition of TNFα secretion, Ibudilast 4 μM; for inhibition at 8 µM: read-out: % inhibition of TNFα secretion, Ibudilast 8 μM; for inhibition at 0.2 µM: read-out: percent inhibition of TNFα secretion, Loratadine 0.2 μM; for inhibition at 13 µM: read-out: percent inhibition of TNFα secretion, Loratadine 13 μM; for inhibition at 26 µM: read-out: percent inhibition of TNFα secretion, Loratadine 26 μM
[1] = Bromodiphenhydramine HCl μM r5-r13: 0,0.21,0.43,0.85,1.7,3.4,6.8,14,27
[2] = Cyproheptadine HCl μM r5-r13: 0,0.24,0.48,0.96,1.9,3.9,7.7,15,31
[3] = Loratadine μM r5-r13: 0,0.2,0.41,0.82,1.6,3.3,6.5,13,26
[4] = Thiethylperazine Maleate μM r5-r13: 0,0.2,0.39,0.78,1.6,3.1,6.3,13,25
[5] = Cyproheptadine HCl μM r5-r12: 0,0.24,0.48,0.96,1.9,3.9,7.7,15
[6] = Desipramine HCl: 0/0.25/0.5/1/2/4/8/16/32 μM
[7] = Fluoxetine HCl μM: 0/0.23/0.45/0.9/1.8/3.6/7.2/14/29
[8] = Paroxetine HCl: 0/0.21/0.42/0.83/1.7/3.3/6.7/13/27 μM

Protocol: Drugs were added to the indicated concentration. […] The plate was then washed again with 0.1% Tween 20/PBS. An HRP-luminescent substrate was added to each well, and the light intensity of each well was measured using a plate luminometer.

Clc1ccc(Cn2c(CN3CCCC3)nc3ccccc32)cc1 [Clemizole HCl, clemizole]
inhibition at 14 µM (read-out: percent inhibition (dose matrix), Table 96, Clemizole HCl 14 μM, Amoxapine 0-25 μM): -11.9%
inhibition at 28 µM (read-out: percent inhibition (dose matrix), Table 96, Clemizole HCl 28 μM, Amoxapine 0-25 μM): 0.658%
inhibition at 14 µM (read-out: percent inhibition (dose matrix), Table 97, Clemizole HCl 14 μM, Nortriptyline HCl 0-33 μM per row (c1)): 5.46%
inhibition at 28 µM (read-out: percent inhibition (dose matrix), Table 97, Clemizole HCl 28 μM, Nortriptyline HCl 0-33 μM per row (c1)): 19.5%
inhibition at 14 µM (read-out: percent inhibition (dose matrix), Table 98, Clemizole HCl 14 μM, Paroxetine HCl 0-27 μM per row (c1)): 0.085%
inhibition at 28 µM (read-out: percent inhibition (dose matrix), Table 98, Clemizole HCl 28 μM, Paroxetine HCl 0-27 μM per row (c1)): -7.43%
inhibition at 14 µM (read-out: percent inhibition (dose matrix), Table 103, Clemizole HCl 14 μM, Fluoxetine HCl 0-29 μM): 9.15%
inhibition at 28 µM (read-out: percent inhibition (dose matrix), Table 103, Clemizole HCl 28 μM, Fluoxetine HCl 0-29 μM): 9.27%
inhibition at 14 µM (read-out: percent inhibition (dose matrix), Table 107, Clemizole HCl 14 μM, Desipramine HCl 0-32 μM per row (c1)): 3.19%
inhibition at 28 µM (read-out: percent inhibition (dose matrix), Table 107, Clemizole HCl 28 μM, Desipramine HCl 0-32 μM per row (c1)): 14.9%
inhibition at 14 µM (read-out: percent inhibition (dose matrix), Table 108, Clemizole HCl 14 μM, Sertraline HCl 0-32 μM per row (c1)): 4.65%
inhibition at 28 µM (read-out: percent inhibition (dose matrix), Table 108, Clemizole HCl 28 μM, Sertraline HCl 0-32 μM per row (c1)): 16.9%
inhibition at 14 µM (read-out: percent inhibition of TNFα secretion, Clemizole HCl 14 μM, Amoxapine μM r5-r13: 0,0.2,0.4,0.8,1.6,3.2,6.4,13,25): 20%
inhibition at 14 µM (read-out: percent inhibition of TNFα secretion, Clemizole HCl 14 μM, Desipramine HCl: 0/0.25/0.5/1/2/4/8/16/32 μM): 26.4%
inhibition at 14 µM (read-out: percent inhibition of TNFα secretion, Clemizole HCl 14 μM, Fluoxetine HCl μM: 0/0.23/0.45/0.9/1.8/3.6/7.2/14/29): 26.1%
inhibition at 14 µM (read-out: percent inhibition of TNFα secretion, Clemizole HCl 14 μM, Paroxetine HCl μM r5-r13: 0,0.21,0.42,0.83,1.7,3.3,6.7,13,27): 22.4%
inhibition at 14 µM (read-out: percent inhibition of TNFα secretion, Clemizole HCl 14 μM, Sertraline HCl by grid row r5-r13: 0/0.25/0.49/0.99/2/4/7.9/16/32 μM): 24.5%
inhibition at 28 µM (read-out: percent inhibition of TNFα secretion, Clemizole HCl 28 μM, Amoxapine μM r5-r13: 0,0.2,0.4,0.8,1.6,3.2,6.4,13,25): 42.5%
inhibition at 28 µM (read-out: percent inhibition of TNFα secretion, Clemizole HCl 28 μM, Desipramine HCl: 0/0.25/0.5/1/2/4/8/16/32 μM): 41.4%
inhibition at 28 µM (read-out: percent inhibition of TNFα secretion, Clemizole HCl 28 μM, Fluoxetine HCl μM: 0/0.23/0.45/0.9/1.8/3.6/7.2/14/29): 34.1%
inhibition at 28 µM (read-out: percent inhibition of TNFα secretion, Clemizole HCl 28 μM, Paroxetine HCl μM r5-r13: 0,0.21,0.42,0.83,1.7,3.3,6.7,13,27): 42.1%
inhibition at 28 µM (read-out: percent inhibition of TNFα secretion, Clemizole HCl 28 μM, Sertraline HCl by grid row r5-r13: 0/0.25/0.49/0.99/2/4/7.9/16/32 μM): 43.3%
inhibition of TNFα secretion (prednisolone […], clemizole HCl r5-r13: 0,0.22,0.43,0.86,1.7,3.5,6.9,14,28 μM): 28

OCCN(CCO)c1nc(N2CCCCC2)c2nc(N(CCO)CCO)nc(N3CCCCC3)c2n1 [Dipyridamole]
inhibition at 0.3 µM [1]: 0.92%
inhibition at 0.3 µM [2]: -0.27%
inhibition at 0.3 µM [3]: 9.6%
inhibition at 0.3 µM [4]: 7%
inhibition at 19 µM [1]: 71%
inhibition at 19 µM [2]: 63%
inhibition at 19 µM [3]: 70%
inhibition at 19 µM [4]: 71%

CN(C)CCOC(C)(c1ccccc1)c1ccccn1 (centres unmarked) [Doxylamine Succinate]
inhibition of TNFα secretion (prednisolone 1 μM, doxylamine succinate r5-r13: 0,0.2,0.4,0.8,1.6,3.2,6.4,13,26 μM): 34

CC(C)(C(=O)O)c1ccc(C(O)CCCN2CCC(C(O)(c3ccccc3)c3ccccc3)CC2)cc1 (centres unmarked) [Fexofenadine HCl]
inhibition of TNFα secretion (prednisolone 0.5 μM, fexofenadine HCl r5-r13: 0,0.073,0.15,0.29,0.58,1.2,2.3,4.6,9.3 μM): 50

CC(C)C(=O)c1c(C(C)C)nn2ccccc12 [Ibudilast]
inhibition at 0.5 µM [1]: 19%
inhibition at 0.5 µM [5]: 20%
inhibition at 0.5 µM [3]: 21%
inhibition at 0.5 µM [4]: 23%
inhibition at 1 µM [1]: 24%
inhibition at 1 µM [5]: 23%
inhibition at 1 µM [3]: 32%
inhibition at 1 µM [4]: 27%
inhibition at 2 µM [1]: 36%
inhibition at 2 µM [5]: 32%
inhibition at 2 µM [3]: 35%
inhibition at 2 µM [4]: 38%
inhibition at 4 µM [1]: 43%
inhibition at 4 µM [5]: 36%
inhibition at 4 µM [3]: 39%
inhibition at 4 µM [4]: 42%
inhibition at 8 µM [1]: 41%
inhibition at 8 µM [5]: 41%
inhibition at 8 µM [3]: 43%
inhibition at 8 µM [4]: 48%

CCOC(=O)N1CCC(=C2c3ccc(Cl)cc3CCc3cccnc32)CC1 [Loratadine, loratadine]
inhibition at 0.2 µM [6]: -1.95%
inhibition at 0.2 µM [7]: 3.68%
inhibition at 0.2 µM [8]: -1.38%
inhibition at 13 µM [6]: 31.7%
inhibition at 13 µM [7]: 42.9%
inhibition at 13 µM [8]: 38.3%
inhibition at 26 µM [6]: 41.5%
inhibition at 26 µM [7]: 56.6%
inhibition at 26 µM [8]: 43.4%
